Results taken from ChEMBL document CHEMBL1212880, “Discovery of (2,4-dihydroxy-5-isopropylphenyl)-[5-(4-methylpiperazin-1-ylmethyl)-1,3-dihydroisoindol-2-yl]methanone (AT13387), a novel inhibitor of the molecular chaperone Hsp90 by fragment based drug design” (J Med Chem, 2010).
Calls of active or inactive are those of the source. The rule behind the calls is not given here.

How the values were obtained:
[1] = Intrinsic clearance in mouse liver S9 fraction; format: ADME, subcellular; conditions: s9
HCT-116 [2] = assay: Cytotoxicity against human HCT116 cells at 30 uM by Alamar blue assay; format: functional, cell-based
HCT-116 [3] = assay: Cytotoxicity against human HCT116 cells at 100 uM by Alamar blue assay; format: functional
[4] = Dissociation constant, pKa of the compound; format: physicochemical
CYP2C9 = CYP2C9 (Homo sapiens, UniProt P11712); assay: Inhibition of CYP2C9 at 10 uM; format: ADME
CYP2C19 = CYP2C19 (Homo sapiens, UniProt P33261); assay: Inhibition of CYP2C19 at 10 uM; format: ADME
[5] = Protein binding in human plasma after 6 hrs by equilibrium dialysis method; format: ADME, cell-free; conditions: read-out: PPB (converted)
physchem = conditions: buffer, pH 7.4
hERG (KCNH2) [6] = molecular target: T1, hERG (KCNH2) (Homo sapiens, UniProt Q12809); assay: in vitro; conditions: HEK293 cells expressing hERG
Description: Inhibition of human ERG expressed in HEK293 cells at 3 uM by patch clamp assay

hERG (KCNH2) [7] = molecular target: T1, hERG (KCNH2); assay: in vitro; conditions: HEK293 cells expressing hERG; remark: listed apart in the source
Description: Inhibition of human ERG expressed in HEK293 cells at 30 uM by patch clamp assay

[8] = Clearance in BALB/c mouse plasma at 10 mg/kg, iv; format: ADME, organism-based; design: dose 10 mg/kg, route intravenous
[9] = Drug level in human HCT116 cells xenografted nude BALB/c mouse tumor at 80 mg/kg, iv after 24 hrs; format: ADME, organism-based, Neoplasm, HCT-116; design: dose 80 mg/kg, route intravenous; conditions: read-out: Drug uptake
HCT-116 [10] = assay: Antitumor activity against human HCT116 cells xenografted in BALB/c mouse assessed as inhibition of tumor growth at 80 mg/kg, ip qd for 8 days measured on day 12; format: functional; conditions: HCT-116, ip, route intraperitoneal
HCT-116 [11] = assay: Antitumor activity against human HCT116 cells xenografted in BALB/c mouse assessed as inhibition of tumor growth at 80 mg/kg, ip qd for 8 days measured on day 12 relative to control; format: functional; conditions: HCT-116, ip, route intraperitoneal
HCT-116 [12] = assay: Antitumor activity against human HCT116 cells xenografted in BALB/c mouse assessed as delay in tumor growth at 80 mg/kg, ip qd for 8 days; format: functional; conditions: route intraperitoneal
CYP3A4 = CYP3A4 (Homo sapiens, UniProt P08684); assay: Inhibition of CYP3A4 at 10 uM; format: ADME
Cytochrome P450 2C9 = Cytochrome P450 2C9 (Homo sapiens, UniProt P11712); assay: Binding affinity to CYP2C9; format: ADME
Cytochrome P450 2C19 = Cytochrome P450 2C19 (Homo sapiens, UniProt P33261); assay: Binding affinity to CYP2C19; format: ADME
[13] = Solubility of the compound in acetate buffer at 15 mg at pH 5.5; format: physicochemical
[14] = Solubility of the compound in phosphate buffer at 15 mg at pH 6.5; format: physicochemical
[15] = Solubility of the compound in phosphate buffer at 15 mg at pH 5.5; format: physicochemical
[16] = Solubility of the compound in lactate buffer at 15 mg at pH 4.2; format: physicochemical

T1 sequence (Q12809 whole entry): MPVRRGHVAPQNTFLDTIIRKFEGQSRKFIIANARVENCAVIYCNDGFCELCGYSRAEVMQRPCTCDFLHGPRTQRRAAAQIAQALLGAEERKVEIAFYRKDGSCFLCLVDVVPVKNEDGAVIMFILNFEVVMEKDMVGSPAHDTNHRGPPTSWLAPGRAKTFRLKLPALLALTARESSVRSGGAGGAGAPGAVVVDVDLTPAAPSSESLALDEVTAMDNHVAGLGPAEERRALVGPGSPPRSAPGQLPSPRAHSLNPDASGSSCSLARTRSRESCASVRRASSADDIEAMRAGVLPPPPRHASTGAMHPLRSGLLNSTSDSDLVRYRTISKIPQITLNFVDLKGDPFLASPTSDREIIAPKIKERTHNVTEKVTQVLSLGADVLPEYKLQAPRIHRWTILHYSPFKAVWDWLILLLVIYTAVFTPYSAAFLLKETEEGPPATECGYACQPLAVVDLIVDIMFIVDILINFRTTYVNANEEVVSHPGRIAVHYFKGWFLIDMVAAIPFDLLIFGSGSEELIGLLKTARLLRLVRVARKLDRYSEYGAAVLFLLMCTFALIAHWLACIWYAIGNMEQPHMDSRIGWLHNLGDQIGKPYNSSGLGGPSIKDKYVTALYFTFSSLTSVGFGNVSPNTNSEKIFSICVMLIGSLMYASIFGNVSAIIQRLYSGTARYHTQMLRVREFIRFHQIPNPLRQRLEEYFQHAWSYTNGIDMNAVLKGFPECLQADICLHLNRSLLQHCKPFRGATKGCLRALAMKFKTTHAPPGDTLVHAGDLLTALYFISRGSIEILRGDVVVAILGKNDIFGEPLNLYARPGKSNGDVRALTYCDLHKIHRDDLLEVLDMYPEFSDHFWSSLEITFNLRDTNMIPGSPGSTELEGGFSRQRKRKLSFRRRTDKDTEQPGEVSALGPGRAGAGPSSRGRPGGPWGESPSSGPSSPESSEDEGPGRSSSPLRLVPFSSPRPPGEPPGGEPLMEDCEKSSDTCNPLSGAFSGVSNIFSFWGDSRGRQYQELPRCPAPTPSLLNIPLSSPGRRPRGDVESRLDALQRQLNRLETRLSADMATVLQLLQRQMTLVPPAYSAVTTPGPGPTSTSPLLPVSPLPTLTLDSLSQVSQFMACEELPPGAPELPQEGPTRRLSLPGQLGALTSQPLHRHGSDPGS
Chain of CYP3A4 (P08684 whole entry): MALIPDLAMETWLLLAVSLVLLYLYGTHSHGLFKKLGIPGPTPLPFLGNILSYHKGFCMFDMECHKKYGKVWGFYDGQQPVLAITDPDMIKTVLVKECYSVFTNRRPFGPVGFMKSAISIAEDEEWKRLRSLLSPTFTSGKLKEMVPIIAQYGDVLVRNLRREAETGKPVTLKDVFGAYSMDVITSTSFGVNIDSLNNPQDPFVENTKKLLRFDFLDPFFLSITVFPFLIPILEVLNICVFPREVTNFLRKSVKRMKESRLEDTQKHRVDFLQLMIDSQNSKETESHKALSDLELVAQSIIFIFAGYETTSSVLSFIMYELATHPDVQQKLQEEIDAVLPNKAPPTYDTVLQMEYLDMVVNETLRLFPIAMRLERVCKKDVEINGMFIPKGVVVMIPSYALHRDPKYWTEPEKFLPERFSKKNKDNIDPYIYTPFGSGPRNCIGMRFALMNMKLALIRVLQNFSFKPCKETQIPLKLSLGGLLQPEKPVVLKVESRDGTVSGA
Chain of Cytochrome P450 2C19 (P33261 whole entry): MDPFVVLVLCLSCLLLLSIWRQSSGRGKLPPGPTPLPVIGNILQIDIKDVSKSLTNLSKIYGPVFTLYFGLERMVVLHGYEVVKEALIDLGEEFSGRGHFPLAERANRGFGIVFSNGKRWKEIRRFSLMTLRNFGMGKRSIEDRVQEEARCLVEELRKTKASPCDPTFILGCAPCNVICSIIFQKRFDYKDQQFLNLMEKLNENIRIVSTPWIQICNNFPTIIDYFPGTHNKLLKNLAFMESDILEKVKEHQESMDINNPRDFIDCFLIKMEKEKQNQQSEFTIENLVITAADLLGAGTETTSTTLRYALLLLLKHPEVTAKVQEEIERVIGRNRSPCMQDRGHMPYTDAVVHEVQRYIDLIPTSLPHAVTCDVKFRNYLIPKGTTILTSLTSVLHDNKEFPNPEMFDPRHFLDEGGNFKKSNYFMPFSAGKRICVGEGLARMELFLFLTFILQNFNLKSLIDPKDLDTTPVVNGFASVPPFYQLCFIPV
Chain of CYP2C19 (P33261 whole entry): as above
Chain of CYP2C9 (P11712 whole entry): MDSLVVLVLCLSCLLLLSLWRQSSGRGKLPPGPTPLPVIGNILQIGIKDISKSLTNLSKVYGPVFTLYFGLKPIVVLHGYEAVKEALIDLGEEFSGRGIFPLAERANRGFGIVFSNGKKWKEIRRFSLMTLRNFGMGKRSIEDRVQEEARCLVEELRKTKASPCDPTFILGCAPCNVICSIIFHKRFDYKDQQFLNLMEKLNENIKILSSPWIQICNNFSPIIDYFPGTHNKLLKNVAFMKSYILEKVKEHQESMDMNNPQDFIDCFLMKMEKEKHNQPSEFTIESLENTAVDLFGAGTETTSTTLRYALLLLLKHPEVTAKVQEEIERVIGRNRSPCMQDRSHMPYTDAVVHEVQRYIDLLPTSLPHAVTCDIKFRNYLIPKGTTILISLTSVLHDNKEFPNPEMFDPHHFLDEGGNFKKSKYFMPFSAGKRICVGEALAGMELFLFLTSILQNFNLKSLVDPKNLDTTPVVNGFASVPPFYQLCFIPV
Chain of Cytochrome P450 2C9 (P11712 whole entry): as above

pKa [4]	logD (physchem)	SMILES	inhibition at 3 µM (hERG (KCNH2) [6])	inhibition at 30 µM (hERG (KCNH2) [7])	further results
7.85	2.4	CC(C)c1cc(C(=O)N2Cc3ccc(OCCN(C)C)cc3C2)c(O)cc1O	45%	87%	clearance [8]: 170 mL/min/kg; concentration at 24 h [9]: 11 µM; CL [1]: 0.034 mL/min/kg; inhibition in vivo at 80 mg/kg (HCT-116 [10]): 63%; inhibition in vivo at 80 mg/kg (HCT-116 [11]): 37%; Activity (HCT-116 [12]): 11.4 days; inhibition at 10 µM (CYP3A4): 34%
10.2	0.96	CC(C)c1cc(C(=O)N2Cc3ccc(OCCCN)cc3C2)c(O)cc1O	8%	42%	Activity (Cytochrome P450 2C9): Active; Activity (Cytochrome P450 2C19): Active
6.9	3.3	CC(C)c1cc(C(=O)N2Cc3ccc(CN4CCOCC4)cc3C2)c(O)cc1O	25%	48%	–

The remaining lines, values behind:

SMILES	pKa [4]	logD (physchem)	inhibition at 3 µM (hERG (KCNH2) [6])	inhibition at 30 µM (hERG (KCNH2) [7])	further results
CC(C)c1cc(C(=O)N2Cc3ccccc3C2)c(O)c(F)c1O	–	–	–	–	CL [1]: 0.004 mL/min/kg; Activity (HCT-116 [2]): inactive; Activity (HCT-116 [3]): 60%
CC(C)c1cc(C(=O)N2Cc3ccc(CN(C)C)cc3C2)c(O)cc1O	9.2	2.1	5%	57%	inhibition at 10 µM (CYP2C9): 50%; inhibition at 10 µM (CYP2C19): 50%; fraction unbound at 6 h [5]: 0.36
CC(C)c1c(O)cc(O)c(C(=O)N2Cc3ccccc3C2)c1F	–	–	–	–	Activity (HCT-116 [2]): Not toxic; Activity (HCT-116 [3]): 60%
CC(C)c1cc(C(=O)N2Cc3cccc(N4CCN(C)CC4)c3C2)c(O)cc1O	–	–	41%	87%	inhibition at 10 µM (CYP3A4): < 50%
CC(C)c1cc(C(=O)N2Cc3ccc(OCCNC4CCCC4)cc3C2)c(O)cc1O	–	–	60%	97%	–
CC(C)c1cc(C(=O)N2Cc3ccc(NC4CCN(C)CC4)cc3C2)c(O)cc1O	9.05	1.7	25%	72%	fraction unbound at 6 h [5]: 0.36; solubility [13]: < 3000 µg/mL; solubility [14]: < 3000 µg/mL; solubility [15]: < 3000 µg/mL; solubility [16]: < 3000 µg/mL
CC(C)c1cc(C(=O)N2Cc3cccc(OCCCN4CCOCC4)c3C2)c(O)cc1O	7	3.55	23%	83%	–
